Reference: patent US9833497B2, “Human originated EGF domain proteins and use of the same” (CHENGDU SOURCEBIO LIMITED-LIABILITY COMPANY, priority 2013, dated 2017)

Assays:
Format in all cases: cell-based
E. coli BL21 = test: MIC against Gram-negative bacteria: E. coli BL21; conditions: E. coli BL21; 96-well plate, 5×10^5 CFU/mL, 37° C., 10 h
In short: (§1)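 The recombinant human-originated EGF domain proteins were serially diluted two-fold against bacteria at 5×10^5 CFU/mL in LB medium. After shaken incubation at 37° C, the lowest concentration with no bacterial growth was recorded as the MIC.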

Serratia marcescens = test: MIC against Gram-negative bacteria: Serratia marcescens; conditions: Serratia marcescens; 96-well plate, 5×10^5 CFU/mL, 37° C., 10 h
In short: as §1

Moraxella catarrhalis = test: MIC against Gram-negative bacteria: Moraxella catarrhalis; conditions: Moraxella catarrhalis; 96-well plate, 5×10^5 CFU/mL, 37° C., 10 h
In short: as §1

Klebsiella pneumonia = test: MIC against Gram-negative bacteria: Klebsiella pneumonia; conditions: Klebsiella pneumonia; 96-well plate, 5×10^5 CFU/mL, 37° C., 10 h
In short: as §1

Enterobacter cloacae = test: MIC against Gram-negative bacteria: Enterobacter cloacae; conditions: Enterobacter cloacae; 96-well plate, 5×10^5 CFU/mL, 37° C., 10 h
In short: as §1

Pseudomonas aeruginosa = test: MIC against Gram-negative bacteria: Pseudomonas aeruginosa; conditions: Pseudomonas aeruginosa; 96-well plate, 5×10^5 CFU/mL, 37° C., 10 h
In short: as §1

Citrobacter diversus = test: MIC against Gram-negative bacteria: Citrobacter diversus; conditions: Citrobacter diversus; 96-well plate, 5×10^5 CFU/mL, 37° C., 10 h
In short: as §1

Proteus vulgaris = test: MIC against Gram-negative bacteria: Proteus vulgaris; conditions: Proteus vulgaris; 96-well plate, 5×10^5 CFU/mL, 37° C., 10 h
In short: as §1

Proteus mirabilis = test: MIC against Gram-negative bacteria: Proteus mirabilis; conditions: Proteus mirabilis; 96-well plate, 5×10^5 CFU/mL, 37° C., 10 h
In short: as §1

Aeromonas hydrophila = test: MIC against Gram-negative bacteria: Aeromonas hydrophila; conditions: Aeromonas hydrophila; 96-well plate, 5×10^5 CFU/mL, 37° C., 10 h
In short: as §1

E. coli DH5α = test: Antibacterial activity: MIC and growth curve against E. coli DH5α in 96-well plate; conditions: minimal inhibitory concentration against E. coli DH5α; 96-well plate, 5×10^5 CFU/mL, 37° C., judged after 8 h
In short: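 Log-phase DH5α (OD600 about 0.5, 37° C, 185 rpm in LB) was pelleted, resuspended in fresh LB and seeded at 5×10^5 CFU/mL with recombinant protein at 50, 25 and 12.5 μg/mL (two-fold series), in triplicate. Plates were shaken at 175 rpm, 37° C, and OD600 was read every 30 min. MIC was the lowest concentration with no growth.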

Row | Substance | MIC against E. coli BL21 (E. coli BL21) | MIC against S. marcescens (Serratia marcescens) | MIC against M. catarrhalis (Moraxella catarrhalis) | MIC against K. pneumonia (Klebsiella pneumonia) | MIC against E. cloacae (Enterobacter cloacae) | MIC against P. aeruginosa (Pseudomonas aeruginosa) | MIC against C. diversus (Citrobacter diversus) | MIC against P. vulgaris (Proteus vulgaris) | MIC against P. mirabilis (Proteus mirabilis) | MIC against A. hydrophila (Aeromonas hydrophila) | MIC (E. coli DH5α)
1 | PRT1244 (CGSTCPTCVQGSCDTVTGDCVCSAGYWGPSCN; listed as Homo sapiens) | 12.5 µg/mL | 12.5 µg/mL | 12.5 µg/mL | 12.5 µg/mL | 12.5 µg/mL | 50 µg/mL | 25 µg/mL | 50 µg/mL | 25 µg/mL | 50 µg/mL | 50 µg/mL
2 | PRT1246 (CKELCSCHPHGQCEDVTGQCTCHARRWGARCE; listed as Homo sapiens) | 25 µg/mL | 12.5 µg/mL | 25 µg/mL | 25 µg/mL | 50 µg/mL | 12.5 µg/mL | 12.5 µg/mL | 25 µg/mL | 50 µg/mL | 25 µg/mL | 50 µg/mL
3 | PRT1247 (WGARCEHACQCQHGTCHPRSGACRCEPGWWGAQCA; listed as Homo sapiens) | 12.5 µg/mL | 25 µg/mL | 12.5 µg/mL | 25 µg/mL | 12.5 µg/mL | 12.5 µg/mL | 25 µg/mL | 12.5 µg/mL | 25 µg/mL | 12.5 µg/mL | 50 µg/mL
4 | PRT1248 (SACYCSATSRCDPQTGACLCHAGWWGRSCN; listed as Homo sapiens) | 25 µg/mL | 25 µg/mL | 12.5 µg/mL | 25 µg/mL | 12.5 µg/mL | 25 µg/mL | 25 µg/mL | 12.5 µg/mL | 25 µg/mL | 12.5 µg/mL | 25 µg/mL
5 | PRT1249 (NQCACNSSPCEQQSGRCQCRERTFGARCD; listed as Homo sapiens) | 12.5 µg/mL | 25 µg/mL | 12.5 µg/mL | 12.5 µg/mL | 50 µg/mL | 50 µg/mL | 50 µg/mL | 50 µg/mL | 25 µg/mL | 12.5 µg/mL | 12.5 µg/mL
6 | PRT1250 (FGARCDRYCQCFRGRCHPVDGTCACEPGYRGKYCR; listed as Homo sapiens) | 50 µg/mL | 25 µg/mL | 12.5 µg/mL | 25 µg/mL | 50 µg/mL | 12.5 µg/mL | 50 µg/mL | 50 µg/mL | 25 µg/mL | 12.5 µg/mL | 12.5 µg/mL
7 | PRT1251 (CAFVCADCGSGHCDFQSGRCLCSPGVHGPHCN; listed as Homo sapiens) | 25 µg/mL | 50 µg/mL | 25 µg/mL | 25 µg/mL | 12.5 µg/mL | 50 µg/mL | 50 µg/mL | 25 µg/mL | 12.5 µg/mL | 25 µg/mL | 100 µg/mL
8 | PRT1252 (CPLTCDDISGQVTCPPDWPCGSPGCWCPEGQVLGSEGWCV; listed as Homo sapiens) | 50 µg/mL | 12.5 µg/mL | 25 µg/mL | 12.5 µg/mL | 25 µg/mL | 25 µg/mL | 12.5 µg/mL | 25 µg/mL | 50 µg/mL | 50 µg/mL | 12.5 µg/mL
